Data published in patent US20160101093A1, “METHODS FOR THE TREATMENT OF PREMATURE EJACULATION” (priority 2013, published 2016).

Experiments:
[1] = tested on: patient with lifelong premature ejaculation; experiment: Patient self-injection of bupivacaine at home, subcutaneous, dorsal penis (contemplated Examples 1 and 2); type: in vivo, human; details: dorsally within 1 cm proximal to the glans, self-injected
Procedure: “Prolongation of climax time” means an increase in time (increase in climax baseline time) from which a patient becomes sexually aroused to the time of sexual climax (i.e. orgasm). This is commonly measured as the ‘intravaginal latency time’ and is measured by stopwatch held and activated by the female partner commencing with insertion of male organ into the female, ending at climax of the male. In one aspect, “treating premature ejaculation” means increasing the time between the beginning of sexual arousal of a patient and ejaculation by the patient; and in particular instances, it can mean increasing the time from which sexual intercourse begins to the time of ejaculation. It is contemplated by the present invention, that a patient with lifelong premature ejaculation and relationship stress proceeds to contact their physician. The physician prescribes a teaching injection of 0.2 mL bupivacaine. The administration of bupivacaine is made dorsally just before the glans, e.g., within 1 cm proximal to the glans. The injection is made subcutaneously to the left or right of midline. The injection anesthetizes the dorsal penile nerve. A 30-32 gauge needle is used, and the need is 10 mm or less (e.g., between 4-10 mm, e.g., 4 mm). […] In one aspect the patient sees an improvement in prolonging climax from 45 seconds (prior to treatment) to 4 minutes (following treatment). It is contemplated by the present invention, that a patient with lifelong premature ejaculation and relationship stress proceeds to contact their physician. The physician prescribes a teaching injection of 0.4 mL bupivacaine. The administration of bupivacaine is made dorsally just before the glans, e.g., within 1 cm proximal to the glans. The injection is made subcutaneously to the left or right of midline. The injection anesthetizes the dorsal penile nerve. A 30-32 gauge needle is used, and the need is 7 mm or less (between 4-7 mm). […] In one aspect the patient sees an improvement in prolonging climax from 45 seconds (prior to treatment) to 4 minutes (following treatment).

[2] = tested on: patient with premature ejaculation; experiment: Randomized blinded study of clinician-administered bupivacaine injection, IELT and PEP recorded (Example 4); type: in vivo, human; details: 0.25% bupivacaine
Procedure: A patient with premature ejaculation is 18 years or old and in a monogamous heterosexual relationship for 6 months. A screening/baseline run-in phase will request at least 4 measurements of IELT over a 4-6 week period. For each sexual episode, partner will record PEP, IELT, date and time of sexual encounter; patient will fill out PEP. To qualify for the treatment phase, patients must have a measured IELT of 2 minutes or less in 75% of valuable events. A volume of distribution of 0.4 and 0.8 mL will bathe the dorsal penile nerves as they are located just to the right and left of midline. Diffusion should occur across the midline given that the subcutaneous compartment has a low resistance to fluid migration. Diffusion of the drug solution should occur through Buck's fascia to the dorsal penile nerves. A concentration of bupivacaine (0.25%) is used for local nerve blocks. Doses of administration are of 1 mg of bupivacaine for the 0.4 mL volume and 2 mg for the 0.8 mL group. This is less than 1.5% of the maximum permitted dose. […] Patients will be randomized to one of 4 treatment groups. […] Subsequently, patient will be evaluated for eligibility for “treatment phase”—must have either: (1) IELT of 2 minutes or less in at least 75% or sexual episodes; or (2) IELT of 3 minutes or less in at least 75% of sexual episodes with PEP score indicating accompanying psychosocial or relationship distress. […]

CCCCN1CCCCC1C(=O)Nc1c(C)cccc1C (centres unmarked) [bupivacaine]
climax time following treatment (45 seconds prior to treatment) ([1]; 0.2 mL bupivacaine): 4 min | intravaginal latency time increase ([1]; 0.2 mL bupivacaine): increases more than two-fold | side-effect profile compared to previous therapies ([1]; 0.2 mL bupivacaine): better side-effect profile compared to previous therapies | climax time following treatment (45 seconds prior to treatment) ([1]; 0.4 mL bupivacaine): 4 min | intravaginal latency time increase ([1]; 0.4 mL bupivacaine): increases more than two-fold | side-effect profile compared to previous therapies ([1]; 0.4 mL bupivacaine): better side-effect profile compared to previous therapies | adverse dose-related effects ([2]; 1 mg (0.4 mL) or 2 mg (0.8 mL)): not anticipated | climax time following treatment (45 seconds prior to treatment) ([2]; treatment groups, 1 mg in 0.4 mL or 2 mg in 0.8 mL, clinician-injected): 4 min
